Experiments:
Conditions in all cases: promptly after spray drying and vacuum drying
[1] = Water content by coulometric Karl Fischer titration; format: physicochemical
[2] = Amorphicity / crystallinity by XRD on stability; format: physicochemical
Method: Diffraction patterns were obtained using a Rigaku MiniFlex 600.
The percent of crystallinity was calculated as follows: % crystallinity=area of crystalline peaks/(area of crystalline peaks+amorphous peaks)
(§1) ASDs stored at 25° C./60% RH and 25° C./protected were additionally evaluated at 9 months and 12 months.
Amorphicity and glass transition temperature were assessed using the methodology described in Example 1.

[3] = Glass transition temperature by modulated DSC
[4] = Assay / total impurities by HPLC on stability; format: physicochemical
Method: as §1
LOD was evaluated using the Computrac Max 4000, in which approximately 0.5 g of material was spread evenly across the sample pan. Assay/impurities of the ASDs were assessed using the instrument parameters, measurement conditions, and gradient profile specified in Table 11.

Cc1nc(Nc2ncc(C(=O)Nc3c(C)cccc3Cl)s2)cc(N2CCN(CCO)CC2)n1 [spray-dried material of 100% dasatinib]
Water content [1]: 0.81% | XRD crystallinity [2]: exhibited crystalline character | glass transition temperature (Tg) [3]: 125.61 °C | assay value [4]: 97.4%

From US12478625B2, “Pharmaceutical compositions and crushable tablets including amorphous solid dispersions of dasatinib and uses” (Handa Therapeutics, LLC, priority 2021, dated 2025)
